Experimental data: ChEMBL document CHEMBL1201862, “PubChem BioAssay data set” (2004)
Calls of active or inactive are those of the source.

Assays:
[1] = system: Staphylococcus aureus; experiment: Inhibitors of Bacterial Quorum Sensing Structure Activity Relationship (SAR) Analysis: Dose Response Assay. [Related pubchem assays: 700, 527 ]; type: functional, organism-based
[2] = system: Streptococcus sp. 'group A'; experiment: growth inhibition of control SK(-) GAS strain, dose response, counter-screen for streptokinase expression inhibitor project, luminescence, kanamycin, BacTiterGlo, confirmation (AID 1900); type: functional, organism-based
[3] = system: Streptococcus; experiment: Luminescence Microorganism-Based Dose Response Follow up to Identify Compounds Cytotoxic to Streptococcus. [Related pubchem assays: 1677 (Project Summary), 1915, 1914, 1902 (Retest at Dose), 1900 (Counter Screen), 1662 (Primary HTS)]; type: functional, organism-based
[4] = target: T1, Streptokinase A (Streptococcus pyogenes serotype M1, UniProt P10520); experiment: S. pyogenes streptokinase expression inhibitors, potency, dose response, plasminogen activation absorbance, OD405 (AID 1914); type: functional, Streptococcus pyogenes M1 GAS;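 note: secreted streptokinase activity via plasminogen activation per viability signal from cell pellet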
T1 sequence (P10520 whole entry): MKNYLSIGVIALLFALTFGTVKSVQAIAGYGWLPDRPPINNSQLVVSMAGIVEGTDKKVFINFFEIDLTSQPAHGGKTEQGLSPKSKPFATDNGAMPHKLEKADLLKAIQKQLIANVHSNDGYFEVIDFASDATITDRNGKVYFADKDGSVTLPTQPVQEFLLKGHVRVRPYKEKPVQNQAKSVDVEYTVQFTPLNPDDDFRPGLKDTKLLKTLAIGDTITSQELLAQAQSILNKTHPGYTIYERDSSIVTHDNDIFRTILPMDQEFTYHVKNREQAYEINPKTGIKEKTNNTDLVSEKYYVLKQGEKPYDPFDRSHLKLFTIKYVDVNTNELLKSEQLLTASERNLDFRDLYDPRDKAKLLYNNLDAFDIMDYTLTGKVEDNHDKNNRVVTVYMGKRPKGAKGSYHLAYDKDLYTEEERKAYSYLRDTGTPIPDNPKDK

[5] = system: Streptococcus; experiment: Group A Streptococcus viability loss, dose response, counter-screen for streptokinase expression inhibitor project, luminescence, BacTiterGlo (AID 1915); type: functional, organism-based;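 note: potency for reduction of bacterial viability or growth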
[6] = target: Heat shock protein HSP 90-alpha (Homo sapiens, UniProt P07900); type: functional, organism-based
[7] = Shn3 3'UTR reporter inhibitors, dose response, cell-based, Clone20 osteoblasts, firefly luciferase, cherry-picked (AID 624132); type: functional;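 note: firefly luciferase luminescence from reporter carrying the Shn3 3'UTR in osteoblasts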
[8] = HepG2 cell cytotoxicity, dose response, cytotoxicity control for Shn3 inhibitor project, CellTiter-Glo, cherry-picked (AID 624134); type: functional, cell-based
[9] = control 3'UTR Renilla luciferase suppression, dose response, counter-screen for Shn3 inhibitor project, cell-based, Clone20-Shn3RL, cherry-picked (AID 624133); type: functional
[10] = Fluorescence-based cell-based high throughput dose response assay for inhibitors of the interaction of nucleotide-binding oligomerization domain containing 2 (NOD2) and the receptor-interacting serine-threonine kinase 2 (RIPK2).; type: functional; conditions: Homo sapiens
[11] = target: Beta Lactamase (Pseudomonas aeruginosa, UniProt Q932Y6); experiment: beta-lactamase reporter inhibitor potency, dose response, artefact control for NOD2-RIPK2 interaction inhibitor project, BLA reporter cells, FRET fluorescence (AID 651552); type: functional, cell-based
[12] = target: T2, Fatty acid synthase (Homo sapiens, UniProt P49327); experiment: FAS thioesterase domain inhibitors, dose response, biochemical, endpoint fluorescence intensity, uHTS hits (AID 624327); type: functional;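 note: fluorescence from hydrolysis of an O-methyl fluorescein acyl ester substrate by the enzyme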
[13] = target: T2, Fatty acid synthase; experiment: FAS thioesterase domain inhibitors, dose response, biochemical, kinetic fluorescence intensity (AID 624326); type: functional;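 note: rate of fluorescence rise from hydrolysis of a fluorogenic O-methyl fluorescein ester substrate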
[14] = target: Acyl-homoserine lactone acylase PvdQ (Pseudomonas aeruginosa (strain LESB58), UniProt Q9I194); experiment: P. aeruginosa PvdQ acylase inhibitors, dose response, biochemical, fluorescence, plate reader and imaging, cherry-picks (AID 493231)
[15] = target: T3, Aminopeptidase N (Plasmodium falciparum FcB1/Columbia, UniProt O96935); experiment: P. falciparum M1AAP inhibitors, biochemical, fluorogenic H-Leu-NHMec substrate, 1536-well (AID 1445); parameters: species or system Plasmodium falciparum 3D7, 3D7
T3 sequence (O96935 whole entry): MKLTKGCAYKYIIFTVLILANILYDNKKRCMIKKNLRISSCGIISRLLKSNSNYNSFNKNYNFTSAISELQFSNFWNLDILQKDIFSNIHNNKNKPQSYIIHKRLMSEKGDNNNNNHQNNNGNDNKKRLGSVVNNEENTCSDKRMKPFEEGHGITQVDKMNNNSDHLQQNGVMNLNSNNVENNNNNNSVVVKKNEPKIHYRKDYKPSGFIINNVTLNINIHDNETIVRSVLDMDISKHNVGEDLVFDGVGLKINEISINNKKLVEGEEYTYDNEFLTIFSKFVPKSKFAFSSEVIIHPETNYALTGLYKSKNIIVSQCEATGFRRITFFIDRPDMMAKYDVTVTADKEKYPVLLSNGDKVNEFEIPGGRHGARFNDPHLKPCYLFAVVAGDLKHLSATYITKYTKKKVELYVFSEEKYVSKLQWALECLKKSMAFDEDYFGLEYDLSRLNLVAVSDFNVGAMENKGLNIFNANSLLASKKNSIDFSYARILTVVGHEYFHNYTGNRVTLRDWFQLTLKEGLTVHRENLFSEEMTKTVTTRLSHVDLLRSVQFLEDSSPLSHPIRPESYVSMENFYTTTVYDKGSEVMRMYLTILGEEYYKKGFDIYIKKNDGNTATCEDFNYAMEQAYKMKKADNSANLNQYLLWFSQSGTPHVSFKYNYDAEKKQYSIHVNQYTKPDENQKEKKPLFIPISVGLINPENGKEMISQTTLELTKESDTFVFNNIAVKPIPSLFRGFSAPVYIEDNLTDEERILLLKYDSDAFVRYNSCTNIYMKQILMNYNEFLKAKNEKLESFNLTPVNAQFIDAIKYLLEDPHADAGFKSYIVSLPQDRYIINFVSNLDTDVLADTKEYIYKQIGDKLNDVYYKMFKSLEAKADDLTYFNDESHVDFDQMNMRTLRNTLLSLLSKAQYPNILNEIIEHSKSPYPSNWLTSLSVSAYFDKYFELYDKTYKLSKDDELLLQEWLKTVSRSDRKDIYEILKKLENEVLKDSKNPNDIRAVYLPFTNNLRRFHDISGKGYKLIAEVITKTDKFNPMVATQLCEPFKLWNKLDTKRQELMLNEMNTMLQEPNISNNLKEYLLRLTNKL

[16] = system: HEK293; experiment: Fluorescence-based counterscreen for potentiators or agonists of NPY-Y2: cell-based high-throughput dose response assay to identify inhibitors of cyclic nucleotide gated ion channel (CNGC) activity. In this assay, the parental HEK293 cell line transfected with a cyclic-nucleotide gated ion channel (CNGC)-based cAMP sensor is used to measure inhibition of isoproterenol-induced CNGC activity by test compound.; type: functional; conditions: Homo sapiens
[17] = target: T4, Neuropeptide Y receptor type 2 (Homo sapiens, UniProt P49146); experiment: Fluorescence-based cell-based high-throughput dose response assay for agonists of NPY-Y2. [Related pubchem assays: 1703 (Screening assay (CNGC inhibitors).), 1359 (Screening assay (NPY-Y2 potentiators or agonists).), 1304 (Screening assay (NPY-Y1 potentiators or agonists).), 1710 (Screening assay (NPY-Y2 agonists).), 1791 (Summary AID.)]; type: functional
[18] = target: T5, Neuropeptide Y receptor type 1 (Homo sapiens, UniProt P25929); experiment: Fluorescence-based counterscreen for agonists of NPY-Y2: cell-based high-throughput dose response assay for agonists of NPY-Y1.; type: functional
[19] = target: G2/mitotic-specific cyclin-B1 (Homo sapiens, UniProt P14635); experiment: Counterscreen assay for inhibitors of Wee1 degradation: dose response cell-based assay to identify inhibitors of cyclin B degradation. [Related pubchem assays: 1410, 1321 ]; type: functional
[20] = inhibitors of firefly luciferase expression or activity, dose response, H4 neuroglioma cells, luminescence (AID 1990); type: functional, cell-based
[21] = target: Wee1-like protein kinase (Homo sapiens, UniProt P30291); experiment: Dose Response Cell-based Assay for Inhibitors of Wee1 Degradation. [Related pubchem assays: 1410, 1321 ]; type: functional
[22] = Luminescence Cell-Based Dose Response HTS to Identify Inhibitors of 5'UTR Stem-Loop Driven Prion Protein mRNA Translation in H4 Neuroglioblastoma Cells. [Related pubchem assays: 1827 (Project Summary), 1813 (Primary HTS)]; type: functional
[23] = inhibitors of SNCA 5'UTR-driven reporter translation, confirmation, H4 neuroglioma cells, luminescence (AID 1988); type: functional, cell-based
[24] = inhibitors of HIV Env-driven cell fusion, dose response, cherry-pick (AID 652057); type: functional, cell-based
[25] = ZM109 Env clade C HIV-1 fusion inhibitors, dose response, HeLa effector, CEM target cells, luciferase, cherry-pick (AID 652058); type: functional, cell-based
[26] = off-target signal loss in HeLa-CEM21 co-culture – HeLa F-luc CTL cells, cherry-picked, counter-screen for HIV-1 Env fusion inhibitor project, dose response (AID 652040); type: functional, cell-based;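 note: potency for signal decrease marking cytotoxic or nonspecific inhibition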
[27] = inhibitors of clade B AD8 Env fusion, dose response, cell-based, cherry-pick (AID 652062); type: functional;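 note: luciferase signal from cell-cell fusion driven by HIV-1 clade B AD8 Env; potency is for inhibitors of fusion seen as a drop in luminescence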
[28] = target: Serine/threonine-protein phosphatase PP1-alpha catalytic subunit (Homo sapiens, UniProt P62136); experiment: PP1 phosphatase inhibitors, dose response, biochemical, fluorescence (AID 2403);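 note: phosphatase turnover of OMFP into fluorescent 3-O-methylfluorescein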
[29] = target: Serine/threonine-protein phosphatase (Homo sapiens, UniProt Q9BPW0); experiment: Counterscreen for inhibitors of PP1: fluorescence-based biochemical high throughput dose response assay to identify inhibitors of Protein Phosphatase 5 (PP5). [Related pubchem assays: 2034 (Summary (PP5 inhibitors)), 1987 (PP5 inhibitors in singlate), 2235 (PP1 inhibitors in singlate)]
[30] = target: Neuropeptides B/W receptor type 1 (Homo sapiens, UniProt P48145); experiment: Fluorescence-based dose response cell-based high throughput screening assay to identify antagonists of the G-protein coupled receptor 7 (GPR7). [Related pubchem assays: 1952 (Screening assay (GPR7 antagonists).), 1880 (Summary AID.)]; type: functional
[31] = target: Melanin-concentrating hormone receptor 1 (Homo sapiens, UniProt Q99705); experiment: Fluorescence-based counterscreen for antagonists of the G-protein coupled receptor 7 (GPR7): cell-based high throughput dose response assay to identify antagonists of the melanin-concentrating hormone receptor 1 (MCHR1).; type: functional
[32] = target: T4, Neuropeptide Y receptor type 2; experiment: Fluorescence-based counterscreen for agonists of NPY-Y1: cell-based high-throughput dose response assay for agonists of NPY-Y2.; type: functional
[33] = system: HEK293; experiment: Fluorescence-based counterscreen for potentiators or agonists of NPY-Y1: cell-based high-throughput dose response assay for inhibitors of cyclic nucleotide gated ion channel (CNGC) activity. In this assay, the parental HEK293 cell line transfected with a cyclic-nucleotide gated ion channel (CNGC)-based cAMP sensor is used to measure inhibition of isoproterenol-induced CNGC …; type: functional; conditions: Homo sapiens
[34] = target: T5, Neuropeptide Y receptor type 1; experiment: Fluorescence-based dose response cell-based high-throughput screening assay for agonists of NPY-Y1. [Related pubchem assays: 1697 (Screening assay (NPY-Y1 agonists).), 1359 (Screening assay (NPY-Y2 potentiators or agonists).), 1304 (Screening assay (NPY-Y1 potentiators or agonists).), 1704 (Screening assay (CNGC inhibitors).), 1791 (Summary AID.)]; type: functional

T4 sequence (P49146 whole entry): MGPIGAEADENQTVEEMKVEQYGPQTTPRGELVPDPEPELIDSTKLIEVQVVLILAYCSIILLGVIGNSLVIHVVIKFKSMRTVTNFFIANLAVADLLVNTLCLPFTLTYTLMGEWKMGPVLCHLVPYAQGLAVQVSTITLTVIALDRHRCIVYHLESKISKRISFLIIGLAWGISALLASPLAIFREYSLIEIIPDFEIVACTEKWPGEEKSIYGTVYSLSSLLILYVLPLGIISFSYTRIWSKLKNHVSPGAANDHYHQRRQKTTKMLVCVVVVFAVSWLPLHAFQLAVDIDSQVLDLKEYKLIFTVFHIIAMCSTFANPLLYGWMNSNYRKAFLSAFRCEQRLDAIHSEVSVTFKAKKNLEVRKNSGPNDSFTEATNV
T5 sequence (P25929 whole entry): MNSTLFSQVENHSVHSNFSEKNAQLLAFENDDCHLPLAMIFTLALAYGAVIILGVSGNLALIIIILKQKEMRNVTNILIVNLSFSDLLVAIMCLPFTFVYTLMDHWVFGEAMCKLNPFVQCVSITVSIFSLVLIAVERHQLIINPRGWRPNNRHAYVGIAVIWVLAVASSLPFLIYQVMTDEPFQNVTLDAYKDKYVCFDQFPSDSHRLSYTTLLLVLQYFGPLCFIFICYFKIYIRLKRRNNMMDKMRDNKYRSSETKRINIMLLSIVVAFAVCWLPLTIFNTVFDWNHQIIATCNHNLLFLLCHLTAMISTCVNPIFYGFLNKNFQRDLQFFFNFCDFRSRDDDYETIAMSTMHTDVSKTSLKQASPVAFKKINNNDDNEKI
T2 sequence (P49327 whole entry, the tested form may be a part): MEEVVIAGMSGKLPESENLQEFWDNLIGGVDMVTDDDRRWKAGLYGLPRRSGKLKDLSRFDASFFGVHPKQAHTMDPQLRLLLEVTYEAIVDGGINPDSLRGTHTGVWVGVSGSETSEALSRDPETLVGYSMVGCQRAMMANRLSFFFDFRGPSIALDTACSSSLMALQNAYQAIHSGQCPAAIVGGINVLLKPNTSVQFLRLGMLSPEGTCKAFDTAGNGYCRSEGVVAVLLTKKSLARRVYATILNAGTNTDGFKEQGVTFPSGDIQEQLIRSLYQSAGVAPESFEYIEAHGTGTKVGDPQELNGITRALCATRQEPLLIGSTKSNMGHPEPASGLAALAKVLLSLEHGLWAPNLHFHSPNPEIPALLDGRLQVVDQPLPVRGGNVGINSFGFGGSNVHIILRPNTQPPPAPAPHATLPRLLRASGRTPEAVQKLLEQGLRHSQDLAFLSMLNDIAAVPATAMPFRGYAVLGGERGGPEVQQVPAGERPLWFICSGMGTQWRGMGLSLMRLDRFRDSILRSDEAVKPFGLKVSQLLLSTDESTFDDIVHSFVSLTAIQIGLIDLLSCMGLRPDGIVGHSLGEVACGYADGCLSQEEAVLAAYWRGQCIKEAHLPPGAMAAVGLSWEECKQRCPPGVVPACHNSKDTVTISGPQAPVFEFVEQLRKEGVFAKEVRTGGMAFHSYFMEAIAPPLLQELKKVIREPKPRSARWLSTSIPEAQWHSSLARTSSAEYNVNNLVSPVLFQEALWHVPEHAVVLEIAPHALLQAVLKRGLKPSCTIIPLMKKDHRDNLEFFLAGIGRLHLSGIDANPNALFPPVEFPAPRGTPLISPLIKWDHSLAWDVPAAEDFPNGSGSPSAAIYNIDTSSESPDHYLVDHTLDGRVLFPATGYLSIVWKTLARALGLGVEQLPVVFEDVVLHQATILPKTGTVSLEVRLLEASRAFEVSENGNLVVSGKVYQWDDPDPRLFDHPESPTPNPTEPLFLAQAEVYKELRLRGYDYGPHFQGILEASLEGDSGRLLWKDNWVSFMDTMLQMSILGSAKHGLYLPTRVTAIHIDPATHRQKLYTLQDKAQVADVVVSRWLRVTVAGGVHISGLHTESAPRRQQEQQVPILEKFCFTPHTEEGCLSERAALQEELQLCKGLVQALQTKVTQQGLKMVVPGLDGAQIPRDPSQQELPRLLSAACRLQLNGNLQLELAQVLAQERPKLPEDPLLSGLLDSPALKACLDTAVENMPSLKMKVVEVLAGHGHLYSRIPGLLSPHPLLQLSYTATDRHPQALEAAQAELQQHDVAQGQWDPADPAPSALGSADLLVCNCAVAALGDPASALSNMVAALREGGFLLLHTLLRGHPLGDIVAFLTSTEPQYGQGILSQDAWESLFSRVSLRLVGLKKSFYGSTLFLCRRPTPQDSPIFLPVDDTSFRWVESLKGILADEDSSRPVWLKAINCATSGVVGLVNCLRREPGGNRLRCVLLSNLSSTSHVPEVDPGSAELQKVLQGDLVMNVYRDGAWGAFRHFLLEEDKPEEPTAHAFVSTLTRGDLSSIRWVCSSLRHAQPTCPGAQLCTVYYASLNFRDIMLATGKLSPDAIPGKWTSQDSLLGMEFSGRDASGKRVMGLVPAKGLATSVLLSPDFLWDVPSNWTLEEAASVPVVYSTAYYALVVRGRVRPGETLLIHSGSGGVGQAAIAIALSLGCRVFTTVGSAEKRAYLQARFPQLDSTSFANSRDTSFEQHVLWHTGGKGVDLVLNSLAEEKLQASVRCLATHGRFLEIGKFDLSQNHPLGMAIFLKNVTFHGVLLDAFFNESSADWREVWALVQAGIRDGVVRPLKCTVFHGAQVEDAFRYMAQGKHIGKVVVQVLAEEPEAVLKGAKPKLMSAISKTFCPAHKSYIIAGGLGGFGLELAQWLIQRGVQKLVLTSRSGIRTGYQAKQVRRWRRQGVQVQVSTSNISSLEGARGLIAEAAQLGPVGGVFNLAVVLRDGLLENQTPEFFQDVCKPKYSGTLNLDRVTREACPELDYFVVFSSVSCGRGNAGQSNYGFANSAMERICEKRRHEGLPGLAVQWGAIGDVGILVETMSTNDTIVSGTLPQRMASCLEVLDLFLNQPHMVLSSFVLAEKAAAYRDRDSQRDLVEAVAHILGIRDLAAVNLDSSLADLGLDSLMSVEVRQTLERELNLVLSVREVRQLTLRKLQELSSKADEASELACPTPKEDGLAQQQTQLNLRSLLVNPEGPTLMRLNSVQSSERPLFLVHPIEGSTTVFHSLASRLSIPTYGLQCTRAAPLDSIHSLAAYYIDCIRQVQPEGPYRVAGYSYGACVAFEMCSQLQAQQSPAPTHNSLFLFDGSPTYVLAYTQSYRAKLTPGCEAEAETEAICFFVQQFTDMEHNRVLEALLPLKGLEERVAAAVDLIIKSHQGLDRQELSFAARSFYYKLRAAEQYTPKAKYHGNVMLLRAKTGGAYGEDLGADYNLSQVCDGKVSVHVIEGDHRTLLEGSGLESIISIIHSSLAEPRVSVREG
G2/mitotic-specific cyclin-B1, sequence (P14635 whole entry): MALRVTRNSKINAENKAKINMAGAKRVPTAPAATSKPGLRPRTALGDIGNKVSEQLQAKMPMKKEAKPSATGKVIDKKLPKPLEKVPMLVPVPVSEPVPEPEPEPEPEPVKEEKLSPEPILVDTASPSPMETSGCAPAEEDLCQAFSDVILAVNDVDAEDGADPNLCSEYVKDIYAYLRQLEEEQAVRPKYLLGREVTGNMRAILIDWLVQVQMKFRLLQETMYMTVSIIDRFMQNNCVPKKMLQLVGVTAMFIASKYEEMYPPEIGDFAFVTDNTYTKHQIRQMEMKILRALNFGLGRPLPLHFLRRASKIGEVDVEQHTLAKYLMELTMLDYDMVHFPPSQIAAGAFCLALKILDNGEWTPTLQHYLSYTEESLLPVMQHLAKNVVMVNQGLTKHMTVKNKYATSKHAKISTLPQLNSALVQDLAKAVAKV
Wee1-like protein kinase, sequence (P30291 whole entry): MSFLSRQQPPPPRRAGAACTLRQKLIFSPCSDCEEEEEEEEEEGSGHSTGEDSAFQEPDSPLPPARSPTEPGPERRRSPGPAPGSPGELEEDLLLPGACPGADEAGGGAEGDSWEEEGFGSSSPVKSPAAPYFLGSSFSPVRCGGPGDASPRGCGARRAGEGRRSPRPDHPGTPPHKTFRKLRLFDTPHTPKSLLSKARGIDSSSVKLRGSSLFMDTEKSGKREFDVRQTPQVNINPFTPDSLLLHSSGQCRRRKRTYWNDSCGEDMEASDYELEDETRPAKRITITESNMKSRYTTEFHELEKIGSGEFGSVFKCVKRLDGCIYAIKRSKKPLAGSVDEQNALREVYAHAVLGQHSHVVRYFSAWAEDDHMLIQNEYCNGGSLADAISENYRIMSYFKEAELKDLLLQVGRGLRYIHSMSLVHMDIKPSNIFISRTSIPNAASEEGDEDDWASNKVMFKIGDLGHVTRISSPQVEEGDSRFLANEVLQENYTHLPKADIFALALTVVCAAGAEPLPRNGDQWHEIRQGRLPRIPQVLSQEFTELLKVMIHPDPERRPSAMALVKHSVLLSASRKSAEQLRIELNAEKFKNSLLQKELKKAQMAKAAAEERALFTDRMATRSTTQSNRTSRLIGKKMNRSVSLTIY
Melanin-concentrating hormone receptor 1, sequence (Q99705 whole entry): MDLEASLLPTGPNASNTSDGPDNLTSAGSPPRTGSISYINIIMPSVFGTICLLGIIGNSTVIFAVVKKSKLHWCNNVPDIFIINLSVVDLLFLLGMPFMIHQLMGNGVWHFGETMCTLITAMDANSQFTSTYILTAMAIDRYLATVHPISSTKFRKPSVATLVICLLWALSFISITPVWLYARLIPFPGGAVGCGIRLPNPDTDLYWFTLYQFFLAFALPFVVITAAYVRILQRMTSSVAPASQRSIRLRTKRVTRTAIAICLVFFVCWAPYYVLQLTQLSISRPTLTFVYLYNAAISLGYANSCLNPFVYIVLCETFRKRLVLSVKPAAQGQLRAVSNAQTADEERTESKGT
Beta Lactamase, sequence (Q932Y6 whole entry, the tested form may be a part): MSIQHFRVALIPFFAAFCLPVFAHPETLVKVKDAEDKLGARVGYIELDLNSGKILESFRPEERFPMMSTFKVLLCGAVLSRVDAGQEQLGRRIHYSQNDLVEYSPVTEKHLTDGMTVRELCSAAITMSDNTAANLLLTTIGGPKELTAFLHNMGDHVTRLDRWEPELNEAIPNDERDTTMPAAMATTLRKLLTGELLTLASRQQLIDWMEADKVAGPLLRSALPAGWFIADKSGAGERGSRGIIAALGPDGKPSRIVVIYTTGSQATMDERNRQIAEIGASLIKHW

In the case of `COc1ccc(CC(=O)Nc2oc(-c3ccccc3)c(-c3ccccc3)c2C#N)cc1`, the IC50 [1] is reported as 1.96 µM (active).

In the case of `CC[C@@H](C)[C@H](NC(=O)OC(C)(C)C)c1nnc(S(=O)(=O)Cc2cc(C)ccc2C)o1`, the EC50 [2] is reported as 16.2 µM (active), the EC50 [3] is reported as 33.5 µM (active) and the EC50 [4] is reported as 3.43 µM (active). For the same compound, the EC50 [5] was > 150 µM (not active), the AC50 [6] was 4.36 µM (active) and the AC50 [7] was 5.77 µM (active). For the same compound, the AC50 [8] was 45.1 µM (active), the AC50 [9] was 15.4 µM (active) and the IC50 [10] was 3.12 µM (active). For the same compound, the IC50 [11] was 15.2 µM (inactive), the IC50 [12] was 3.33 µM (active) and the IC50 [13] was 4.12 µM (active).

With `CCOC(=O)N1CCN(c2nc3ccccn3c(=O)c2C=O)CC1` the AC50 [14] was 32.9 µM (active).

For `COc1ccc(CN2C(=O)/C(=C\Nc3ccccc3C(=O)O)c3ccccc3C2=O)cc1`, the IC50 [15] was 24.7 µM (active), the EC50 [16] was > 35.4 µM (not active) and the EC50 [17] was > 35.4 µM (not active). For the same compound, the EC50 [18] was > 11.8 µM (not active).

In the case of `CCOc1cccc(N(C(=O)Cc2cccs2)C(C(=O)NC2CCCCC2)c2cccn2C)c1` (centres undefined), the EC50 [19] is reported as > 49.7 µM (not active), the EC50 [20] is reported as 15.1 µM (active) and the EC50 [21] is reported as > 49.7 µM (not active). The EC50 [22] was > 120 µM (not active), the EC50 [23] was 19.1 µM (active) and the AC50 [24] was 6.74 µM (active). The AC50 [25] was 24.5 µM (active), the AC50 [26] was 55.9 µM (active) and the AC50 [27] was 42 µM (active).

With `COc1cnc(-c2ccccn2)nc1Sc1ccc(F)cc1` the IC50 [28] was 7.21 µM (active) and the IC50 [29] was > 67 µM (not active).

With `CCOC(=O)CNC(c1ccccc1)c1cc(Br)ccc1NC(C)=O` (centres undefined) the IC50 [30] was > 43.8 µM (not active) and the IC50 [31] was > 43.8 µM (not active).

With `CN(C)Cc1c(O)ccc2oc(Cc3ccccc3)cc12` the EC50 [32] was > 35.4 µM (not active), the IC50 [33] was > 35.4 µM (not active) and the EC50 [34] was 14.7 µM (not active).
